Data published in ChEMBL document CHEMBL1649320, “Development of daptomycin nonsusceptibility with heterogeneous vancomycin-intermediate resistance and oxacillin susceptibility in methicillin-resistant Staphylococcus aureus during high-dose daptomycin treatment” (2010).
≈ marks a conversion by molar mass, not a printed value.

Assays:
Assay type in all cases: functional
[1] = system: Staphylococcus aureus; experiment: Antimicrobial activity against methicillin-resistant Staphylococcus aureus CGK6 by Etest method
[2] = system: Staphylococcus aureus; experiment: Antimicrobial activity against methicillin-resistant Staphylococcus aureus CGK4 by Etest method
[3] = system: Staphylococcus aureus; experiment: Antimicrobial activity against methicillin-resistant Staphylococcus aureus CGK1 by Etest method
[4] = system: Staphylococcus aureus; experiment: Antimicrobial activity against methicillin-resistant Staphylococcus aureus CGK2 by Etest method
[5] = system: Staphylococcus aureus; experiment: Antimicrobial activity against methicillin-resistant Staphylococcus aureus CGK8 by Etest method
[6] = system: Staphylococcus aureus; experiment: Antimicrobial activity against methicillin-resistant Staphylococcus aureus CGK3 by Etest method
[7] = system: Staphylococcus aureus; experiment: Antimicrobial activity against methicillin-resistant Staphylococcus aureus CGK7 by Etest method
[8] = system: Staphylococcus aureus; experiment: Antimicrobial activity against methicillin-resistant Staphylococcus aureus CGK5 by Etest method

Row | Compound | MIC [1] [µg/mL] | MIC [2] [µg/mL] | MIC [3] [µg/mL] | MIC [4] [µg/mL] | MIC [5] [µg/mL] | MIC [6] [µg/mL] | MIC [7] [µg/mL] | MIC [8] [µg/mL]
1 | Cc1onc(-c2ccccc2)c1C(=O)N[C@@H]1C(=O)N2[C@@H]1SC(C)(C)[C@@H]2C(=O)O [OXACILLIN] | 1.5 (≈ 3.74 µM) | 16 (≈ 39.9 µM) | 32 (≈ 79.7 µM) | > 256 | 1 (≈ 2.49 µM) | > 256 | 3 (≈ 7.47 µM) | > 256
2 | CN[C@H](CC(C)C)C(=O)N[C@H]1C(=O)N[C@@H](CC(N)=O)C(=O)N[C@H]2C(=O)N[C@H]3C(=O)N[C@H](C(=O)N[C@H](C(=O)O)c4cc(O)cc(O)c4-c4cc3ccc4O)[C@H](O)c3ccc(c(Cl)c3)Oc3cc2cc(c3O[C@@H]2O[C@H](CO)[C@@H](O)[C@H](O)[C@H]2O[C@H]2C[C@](C)(N)[C@H](O)[C@H](C)O2)Oc2ccc(cc2Cl)[C@H]1O [VANCOMYCIN] |  | 1.5 (≈ 1.04 µM) | 1.5 (≈ 1.04 µM) | 1.5 (≈ 1.04 µM) |  |  | 3 (≈ 2.07 µM) | 
3 | CC(=O)N[C@@H]1[C@H](Oc2c3cc4cc2Oc2ccc(cc2Cl)[C@@H](O[C@@H]2O[C@@H](CO)[C@@H](O)[C@H](O)[C@@H]2NC(C)=O)[C@@H]2NC(=O)[C@H](NC(=O)[C@@H]4NC(=O)[C@H]4NC(=O)[C@@H](Cc5ccc(c(Cl)c5)O3)NC(=O)[C@H](N)c3ccc(O)c(c3)Oc3cc(O)cc4c3)c3ccc(O)c(c3)-c3c(O[C@H]4O[C@H](CO)[C@@H](O)[C@@H](O)[C@@H]4O)cc(O)cc3[C@@H](C(=O)O)NC2=O)O[C@@H](CO)[C@@H](O)[C@@H]1O | 2 (≈ 1.13 µM) | 1 (≈ 0.566 µM) | 1 (≈ 0.566 µM) | 1.5 (≈ 0.849 µM) | 2 (≈ 1.13 µM) | 1.5 (≈ 0.849 µM) | 3 (≈ 1.7 µM) | 2 (≈ 1.13 µM)
4 | CC(=O)NC[C@H]1CN(c2ccc(N3CCOCC3)c(F)c2)C(=O)O1 [LINEZOLID] | 1 (≈ 2.96 µM) |  |  |  | 1.5 (≈ 4.45 µM) |  |  | 
5 | CCCCCCCCCC(=O)N[C@@H](Cc1c[nH]c2ccccc12)C(=O)N[C@H](CC(N)=O)C(=O)N[C@@H](CC(=O)O)C(=O)N[C@@H]1C(=O)NCC(=O)N[C@@H](CCCN)C(=O)N[C@@H](CC(=O)O)C(=O)N[C@H](C)C(=O)N[C@@H](CC(=O)O)C(=O)NCC(=O)N[C@H](CO)C(=O)N[C@@H]([C@H](C)CC(=O)O)C(=O)N[C@@H](CC(=O)c2ccccc2N)C(=O)O[C@@H]1C | 4 (≈ 2.47 µM) | 0.38 (≈ 0.234 µM) | 0.5 (≈ 0.309 µM) | 0.75 (≈ 0.463 µM) | 4 (≈ 2.47 µM) | 0.75 (≈ 0.463 µM) | 4 (≈ 2.47 µM) | 0.75 (≈ 0.463 µM)
